Tested on: anthelmintic/nematicide-resistant C. elegans mutant strains
Assay: microbe, parasite or virus in culture
Text: In addition to the Caenorhabditis elegans wild-type N2 strain, this work included the following C. elegans strains: CB1003 (kynu-1(e1003) X); anthelmintic-resistant strains—CB3474 (ben-1(e1880) III), CB193 (unc-29(e193) I), HY496 (bre-1(ye4) IV), RB2119 (acr-23(ok2804) V), JD608 (avr-14(ad1302) I; avr-15(ad1051) V; glc-1 (pk54) V), NM1968 (slo-1(js379) V), RP2635 (mev-1(tr355) III); benzimidazole-resistant CRISPR strains—ECA882 (ben-1(ean64) III), ECA917 (ben-1(ean98) III), ECA1075 (ben-1(ean143) III), ECA1080 (ben-1(ean148) III). This work also featured several additional free-living nematode strains: C. briggsae strain AF16, P. pacificus strain PS312, and P. hermaphrodita strain B178. The four CRISPR-generated benzimidazole-resistant C. elegans mutants were generously provided by Prof. Erik Andersen (Johns Hopkins University); PS312 and B178 were generously provided by Prof. Peter Roy (University of Toronto); all other strains were obtained from the Caenorhabditis Genetics Center (CGC, University of Minnesota). All strains were cultured and propagated at 20 °C on NGM (nematode growth medium) agar plates seeded with E. coli OP50 (Stiernagle, 2006)[56].
Liquid development and viability assays were adapted from a previously established chemical screening protocol (Burns et al.)[24]. In brief, a saturated culture of E. coli HB101 was concentrated 2-fold in liquid NGM and 40 μL of this suspension was distributed to each well of a 96-well flat-bottom culture plate. 0.5 μL chemical solution (or DMSO alone) was added to each well (1% DMSO v/v) using either a multi-channel pipette or a pinning tool (V&P Scientific). L1 worms synchronized from an embryo preparation performed the day prior were diluted to a concentration of ~2 worms/μL in M9 buffer; 10 μL worm suspension was then added to each well. Culture plates were sealed with parafilm and placed in a plastic container lined with wet paper towels to prevent evaporation. Containers were then incubated for 6 days at 20 °C with shaking at 165 rpm. Following incubation, 300 μL M9 was added to each well to decrease the turbidity of the HB101-NGM suspension. Single images of each microplate well were then taken on a Nikon Ti Eclipse inverted microscope (Nikon NIS Elements AR). Images were processed using Python scripts to isolate worm-associated pixels from background. Scores of worm development and viability were determined as the sum of worm-associated pixels in each well. Development/viability scores for each well were divided by the development /viability scores for the corresponding DMSO controls, resulting in a relative viability value for each chemical. At least three biological replicates were performed for each dose-response experiment; relative viability values were averaged across replicates.
Supplementary Table 2. Sensitivity of anthelmintic/nematicide-resistant strains to Class A, B, and C
benzimidazole complex I inhibitors.
LC50s were estimated from fitted dose-
response curves; all dose response data are the mean of at least three biological replicates.
Supplementary Table 2. Davie et al.

SMILES: COC(=O)Nc1nc2ccc(Sc3ccccc3)cc2[nH]1 [fenbendazole, reference compound]
- C. elegans L1 relative development & viability (score 0-1 relative to DMSO controls) (1 µM, strain CB3474, G104D (ben-1)): 1.000
- C. elegans L1 relative development & viability (score 0-1 relative to DMSO controls) (1 µM, strain ECA917, F200Y (ben-1)): 1.000
- C. elegans L1 relative development & viability (score 0-1 relative to DMSO controls) (1 µM, strain ECA1075, F167Y (ben-1)): 1.000
- C. elegans L1 relative development & viability (score 0-1 relative to DMSO controls) (1 µM, strain ECA1080, E198A (ben-1)): 1.000
- C. elegans L1 relative development & viability (score 0-1 relative to DMSO controls) (2 µM, strain CB3474, G104D (ben-1)): 1.000
- C. elegans L1 relative development & viability (score 0-1 relative to DMSO controls) (2 µM, strain ECA917, F200Y (ben-1)): 1.000
- C. elegans L1 relative development & viability (score 0-1 relative to DMSO controls) (2 µM, strain ECA1075, F167Y (ben-1)): 1.000
- C. elegans L1 relative development & viability (score 0-1 relative to DMSO controls) (2 µM, strain ECA1080, E198A (ben-1)): 1.000
- C. elegans L1 relative development & viability (score 0-1 relative to DMSO controls) (3.9 µM, strain CB3474, G104D (ben-1)): 1.000
- C. elegans L1 relative development & viability (score 0-1 relative to DMSO controls) (3.9 µM, strain ECA917, F200Y (ben-1)): 1.000
- C. elegans L1 relative development & viability (score 0-1 relative to DMSO controls) (3.9 µM, strain ECA1075, F167Y (ben-1)): 1.000
- C. elegans L1 relative development & viability (score 0-1 relative to DMSO controls) (3.9 µM, strain ECA1080, E198A (ben-1)): 1.000
- C. elegans L1 relative development & viability (score 0-1 relative to DMSO controls) (15.6 µM, strain CB3474, G104D (ben-1)): 1.000
- C. elegans L1 relative development & viability (score 0-1 relative to DMSO controls) (15.6 µM, strain ECA917, F200Y (ben-1)): 1.000
- C. elegans L1 relative development & viability (score 0-1 relative to DMSO controls) (15.6 µM, strain ECA1075, F167Y (ben-1)): 1.000
- C. elegans L1 relative development & viability (score 0-1 relative to DMSO controls) (15.6 µM, strain ECA1080, E198A (ben-1)): 0.957
- C. elegans L1 relative development & viability (score 0-1 relative to DMSO controls) (31.3 µM, strain CB3474, G104D (ben-1)): 1.000
- C. elegans L1 relative development & viability (score 0-1 relative to DMSO controls) (31.3 µM, strain ECA917, F200Y (ben-1)): 1.000
- C. elegans L1 relative development & viability (score 0-1 relative to DMSO controls) (31.3 µM, strain ECA1075, F167Y (ben-1)): 1.000
- C. elegans L1 relative development & viability (score 0-1 relative to DMSO controls) (31.3 µM, strain ECA1080, E198A (ben-1)): 1.000
- C. elegans L1 relative development & viability (score 0-1 relative to DMSO controls) (62.5 µM, strain CB3474, G104D (ben-1)): 0.845
- C. elegans L1 relative development & viability (score 0-1 relative to DMSO controls) (62.5 µM, strain ECA917, F200Y (ben-1)): 1.000
- C. elegans L1 relative development & viability (score 0-1 relative to DMSO controls) (62.5 µM, strain ECA1075, F167Y (ben-1)): 0.934
- C. elegans L1 relative development & viability (score 0-1 relative to DMSO controls) (62.5 µM, strain ECA1080, E198A (ben-1)): 1.000
- C. elegans L1 relative development & viability (score 0-1 relative to DMSO controls) (125 µM, strain CB3474, G104D (ben-1)): 0.790
- C. elegans L1 relative development & viability (score 0-1 relative to DMSO controls) (125 µM, strain ECA917, F200Y (ben-1)): 0.784
- C. elegans L1 relative development & viability (score 0-1 relative to DMSO controls) (125 µM, strain ECA1075, F167Y (ben-1)): 0.665
- C. elegans L1 relative development & viability (score 0-1 relative to DMSO controls) (125 µM, strain ECA1080, E198A (ben-1)): 0.759
- C. elegans L1 relative development & viability (score 0-1 relative to DMSO controls) (250 µM, strain CB3474, G104D (ben-1)): 0.720
- C. elegans L1 relative development & viability (score 0-1 relative to DMSO controls) (250 µM, strain ECA917, F200Y (ben-1)): 0.835
- C. elegans L1 relative development & viability (score 0-1 relative to DMSO controls) (250 µM, strain ECA1075, F167Y (ben-1)): 0.796
- C. elegans L1 relative development & viability (score 0-1 relative to DMSO controls) (250 µM, strain ECA1080, E198A (ben-1)): 0.686
- C. elegans L1 relative development & viability (score 0-1 relative to DMSO controls) (500 µM, strain CB3474, G104D (ben-1)): 0.538
- C. elegans L1 relative development & viability (score 0-1 relative to DMSO controls) (500 µM, strain ECA917, F200Y (ben-1)): 0.716
- C. elegans L1 relative development & viability (score 0-1 relative to DMSO controls) (500 µM, strain ECA1075, F167Y (ben-1)): 0.599
- C. elegans L1 relative development & viability (score 0-1 relative to DMSO controls) (500 µM, strain ECA1080, E198A (ben-1)): 0.597
- C. elegans L1 relative development & viability (CB3474 G104D (ben-1), 1 µM, score 0-1 relative to DMSO, values >1 set to 1): 1.000
- C. elegans L1 relative development & viability (CB3474 G104D (ben-1), 2 µM, score 0-1 relative to DMSO, values >1 set to 1): 1.000
- C. elegans L1 relative development & viability (CB3474 G104D (ben-1), 3.9 µM, score 0-1 relative to DMSO, values >1 set to 1): 1.000
- C. elegans L1 relative development & viability (CB3474 G104D (ben-1), 15.6 µM, score 0-1 relative to DMSO, values >1 set to 1): 1.000
- C. elegans L1 relative development & viability (CB3474 G104D (ben-1), 31.3 µM, score 0-1 relative to DMSO, values >1 set to 1): 1.000
- C. elegans L1 relative development & viability (CB3474 G104D (ben-1), 62.5 µM, […]): 0.845
- C. elegans L1 relative development & viability (CB3474 G104D (ben-1), 125 µM, […]): 0.790
- C. elegans L1 relative development & viability (CB3474 G104D (ben-1), 250 µM, […]): 0.720
- C. elegans L1 relative development & viability (CB3474 G104D (ben-1), 500 µM, […]): 0.538
- C. elegans L1 relative development & viability (ECA917 F200Y (ben-1), 1 µM, score 0-1 relative to DMSO, values >1 set to 1): 1.000
- C. elegans L1 relative development & viability (ECA917 F200Y (ben-1), 2 µM, score 0-1 relative to DMSO, values >1 set to 1): 1.000
- C. elegans L1 relative development & viability (ECA917 F200Y (ben-1), 3.9 µM, score 0-1 relative to DMSO, values >1 set to 1): 1.000
- C. elegans L1 relative development & viability (ECA917 F200Y (ben-1), 15.6 µM, score 0-1 relative to DMSO, values >1 set to 1): 1.000
- C. elegans L1 relative development & viability (ECA917 F200Y (ben-1), 31.3 µM, score 0-1 relative to DMSO, values >1 set to 1): 1.000
- C. elegans L1 relative development & viability (ECA917 F200Y (ben-1), 62.5 µM, score 0-1 relative to DMSO, values >1 set to 1): 1.000
- C. elegans L1 relative development & viability (ECA917 F200Y (ben-1), 125 µM, […]): 0.784
- C. elegans L1 relative development & viability (ECA917 F200Y (ben-1), 250 µM, […]): 0.835
- C. elegans L1 relative development & viability (ECA917 F200Y (ben-1), 500 µM, […]): 0.716
- C. elegans L1 relative development & viability (ECA1075 F167Y (ben-1), 1 µM, score 0-1 relative to DMSO, values >1 set to 1): 1.000
- C. elegans L1 relative development & viability (ECA1075 F167Y (ben-1), 2 µM, score 0-1 relative to DMSO, values >1 set to 1): 1.000
- C. elegans L1 relative development & viability (ECA1075 F167Y (ben-1), 3.9 µM, score 0-1 relative to DMSO, values >1 set to 1): 1.000
- C. elegans L1 relative development & viability (ECA1075 F167Y (ben-1), 15.6 µM, score 0-1 relative to DMSO, values >1 set to 1): 1.000
- C. elegans L1 relative development & viability (ECA1075 F167Y (ben-1), 31.3 µM, score 0-1 relative to DMSO, values >1 set to 1): 1.000
- C. elegans L1 relative development & viability (ECA1075 F167Y (ben-1), 62.5 µM, […]): 0.934
- C. elegans L1 relative development & viability (ECA1075 F167Y (ben-1), 125 µM, […]): 0.665
- C. elegans L1 relative development & viability (ECA1075 F167Y (ben-1), 250 µM, […]): 0.796
- C. elegans L1 relative development & viability (ECA1075 F167Y (ben-1), 500 µM, […]): 0.599
- C. elegans L1 relative development & viability (ECA1080 E198A (ben-1), 1 µM, score 0-1 relative to DMSO, values >1 set to 1): 1.000
- C. elegans L1 relative development & viability (ECA1080 E198A (ben-1), 2 µM, score 0-1 relative to DMSO, values >1 set to 1): 1.000
- C. elegans L1 relative development & viability (ECA1080 E198A (ben-1), 3.9 µM, score 0-1 relative to DMSO, values >1 set to 1): 1.000
- C. elegans L1 relative development & viability (ECA1080 E198A (ben-1), 15.6 µM, […]): 0.957
- C. elegans L1 relative development & viability (ECA1080 E198A (ben-1), 31.3 µM, score 0-1 relative to DMSO, values >1 set to 1): 1.000
- C. elegans L1 relative development & viability (ECA1080 E198A (ben-1), 62.5 µM, score 0-1 relative to DMSO, values >1 set to 1): 1.000
- C. elegans L1 relative development & viability (ECA1080 E198A (ben-1), 125 µM, […]): 0.759
- C. elegans L1 relative development & viability (ECA1080 E198A (ben-1), 250 µM, […]): 0.686
- C. elegans L1 relative development & viability (ECA1080 E198A (ben-1), 500 µM, […]): 0.597

Source: PMC11079024, “Identification of a family of species-selective complex I inhibitors as potential anthelmintics” (Nature Communications, 2024)
